From PMC7279249, “Synthesis of Fmoc-Triazine Amino Acids and Its Application in the Synthesis of Short Antibacterial Peptidomimetics” (International Journal of Molecular Sciences, 2020)
Values after ≈ are worked out from the molar mass of the structure shown. Where two headings read alike, the source gives them in different places. Peptide text beside a SMILES is read from it.

Tests used:
[1] = test system: P. aeruginosa (KCTC 1637)
Description: (§1) The bacterial cells were grown overnight for 18 h at 37 °C in 10 mL of Mueller Hinton broth (MHB). The 10 μL of this culture was inoculated into 10 mL of fresh MHB and incubated for an additional 3 h at 37 °C to obtain mid-logarithmic phase organisms. Aliquots (100 μL) of bacterial cell suspension at 4 × 10^6 CFU/mL in 1% peptone were added to 100 μL of the sample solutions (serial 2-fold dilutions in 1% peptone). […] The MIC values were determined after 18 h of incubation.

[2] = test system: Staphylococcus aureus (KCTC 1621)
Description: as §1

[3] = test system: Staphylococcus epidermidis (KCTC 1917)
Description: as §1

[4] = test system: E. coli (KCTC 1682)
Description: as §1

[5] = Analytical RP-HPLC retention time; assay type: physicochemical; settings: C18 4.6 mm × 250 mm, 0.05% aq. TFA (A) / 0.05% TFA in CH3CN (B), 5% to 95% B in 30 min, 1.0 mL/min, 25 °C, 280 nm, method A of the Supplementary Material
Description: As described previously, all reactions were performed under argon atmosphere in flame-dried glassware using dry solvents unless otherwise noted. Anhydrous organic solvents of purity greater than 99.9% were purchased from Aldrich and used directly in the reaction. All reagents and some of the starting materials were purchased from commercial chemical suppliers, including Sigma-Aldrich, TCI, and Across Organics and used as received. Analytical thin-layer chromatography (TLC) was performed on Merck aluminum sheets with silica gel 60 F254 using 0.25 mm plates, and was visualized by ultraviolet light, staining with KMnO4 and ninhydrin. Column chromatography purification was performed on Merck silica gel 60 (70–230 mesh or 230–400 mesh). Bruker DRX-400 and DRX-500 NMR spectrometer were used for recording ^1H and ^13C NMR spectra. NMR chemical shifts (δ) are denoted in parts per million (ppm), and coupling constants (J) are given in hertz (Hz). MALDI-TOF mass was recorded using Shimadzu mass spectrometer. The crude peptidomimetics and peptides were purified by reverse-phase high-performance liquid chromatography (RP-HPLC) on Agilent HPLC system equipped with a C18 semi-preparative column (250 mm × 22 mm, 10 μm) using 0.05% aq. trifluoroacetic acid (TFA) (eluent A) and 0.05% TFA in CH3CN (eluent B) were used with a flow rate of 5.0 mL/min at 25 °C, under wavelength 280 nm. Moreover, the purity of the peptide judged to be ≥ 95% pure by analytical HPLC equipped with a C18 column (4.6 mm× 250 mm, 10 μm). Two different linear gradients of 0.05% aq. TFA (eluent A) and 0.05% TFA in CH3CN (eluent B) (gradient method, 5% of eluent B to 95% of Eluent B in 30 min; injection volume, 10 µL; concentration 10 µmol) were used with a flow rate of 1.0 mL/min at 25 °C, under wavelength 280 nm.

[6] = test system: trypsin (read-out S. aureus KCTC 1621); assay type: in vitro ADME
Description: (§2) Digestion of the BJK-4 and melittin by trypsin was carried out using 100 μg/mL peptide and 0.4 μg/mL trypsin in PBS, at 37 °C for 2 h. The reaction solution (50 μL) was added to 150 μL of a bacterial suspension (2 × 10^6 CFU/mL in Mueller-Hinton broth). After incubation at 37 °C for 18 h, the bacterial growth inhibition was determined by measuring absorbance at 600 nm with a microplate ELISA reader (Bio-Tek; EL 800).

[7] = test system: trypsin (read-out E. coli KCTC 1682); assay type: in vitro ADME
Description: as §2

[8] = Gram-negative, serial 2-fold dilutions in 1% peptone, 1 to […], 18 h incubation, lowest concentration causing 100% inhibition of growth (no visible turbidity)
[9] = Gram-positive, serial 2-fold dilutions in 1% peptone, 1 to […], 18 h incubation, lowest concentration causing 100% inhibition of growth (no visible turbidity)

SMILES | MIC, P. aeruginosa (KCTC 1637) [1, 8] [µg/mL] | MIC, Staphylococcus aureus (KCTC 1621) [2, 9] [µg/mL] | MIC, Staphylococcus epidermidis (KCTC 1917) [3, 9] [µg/mL] | MIC, E. coli (KCTC 1682) [4, 8] [µg/mL] | Rt, HPLC retention time [5] [min] | MIC, P. aeruginosa (KCTC 1637) ([1]; KCTC 1637, 18 h) [µg/mL] | MIC, Staphylococcus aureus (KCTC 1621) ([2]; KCTC 1621, 18 h) [µg/mL] | MIC, Staphylococcus epidermidis (KCTC 1917) ([3]; KCTC 1917, 18 h) [µg/mL] | MIC, E. coli (KCTC 1682) ([4]; KCTC 1682, 18 h) [µg/mL] | Antimicrobial activity against S. aureus after trypsin treatment [6] | Antimicrobial activity against E. coli after trypsin treatment [7] | Antimicrobial activity against S. aureus after trypsin treatment ([6]; 100 μg/mL peptide, 0.4 μg/mL trypsin in PBS, 37 °C, 2 h, then S. aureus KCTC 1621 in Mueller-Hinton broth, 18 h at 37 °C, absorbance 600 nm) | Antimicrobial activity against E. coli after trypsin treatment ([7]; 100 μg/mL peptide, 0.4 μg/mL trypsin in PBS, 37 °C, 2 h, then E. coli KCTC 1682 in Mueller-Hinton broth, 18 h at 37 °C, absorbance 600 nm)
CC(=O)NCCNc1nc(NCC(=O)NCCNc2nc(NCC(=O)NCCNc3nc(NCC(=O)NCCNc4nc(NCC(N)=O)nc(N(Cc5ccccc5)Cc5ccccc5)n4)nc(N(CCCN)CCCN)n3)nc(N(Cc3ccccc3)Cc3ccccc3)n2)nc(N(CCCN)CCCN)n1 [BJK-6] | 16 (≈ 10.8 µM) | 16 (≈ 10.8 µM) | 16 (≈ 10.8 µM) | 16 (≈ 10.8 µM) | – | – | – | – | – | – | – | – | –
CC(=O)NCCNc1nc(NCC(N)=O)nc(N(Cc2ccccc2)Cc2ccccc2)n1 [BJK-2] | – | – | – | – | 21.8 | >128 | >128 | >128 | >128 | – | – | – | –
CC(=O)NCCNc1nc(NCC(=O)NCCNc2nc(NCC(N)=O)nc(N(Cc3ccccc3)Cc3ccccc3)n2)nc(N(CCCN)CCCN)n1 [BJK-3] | – | – | – | – | – | 32 (≈ 41.5 µM) | 32 (≈ 41.5 µM) | 32 (≈ 41.5 µM) | 64 (≈ 82.9 µM) | – | – | – | –
CC(=O)NCCNc1nc(NCC(=O)NCCNc2nc(NCC(=O)NCCNc3nc(NCC(N)=O)nc(N(Cc4ccccc4)Cc4ccccc4)n3)nc(N(CCCN)CCCN)n2)nc(N(Cc2ccccc2)Cc2ccccc2)n1 [BJK-5] | – | – | – | – | 21.1 | 32 (≈ 27.6 µM) | 64 (≈ 55.1 µM) | 64 (≈ 55.1 µM) | 128 (≈ 110 µM) | – | – | – | –
CC(=O)N[C@@H](CCCCN)C(=O)N[C@@H](Cc1c[nH]c2ccccc12)C(N)=O [BJK-7] (Ac-Lys-Trp-NH2) | – | – | – | – | 15.4 | 128 (≈ 343 µM) | >128 | >128 | 128 (≈ 343 µM) | – | – | – | –
CC(=O)NCCNc1nc(NCC(=O)NCCNc2nc(NCC(=O)NCCNc3nc(NCC(N)=O)nc(N(CCCN)CCCN)n3)nc(N(Cc3ccccc3)Cc3ccccc3)n2)nc(N(CCCN)CCCN)n1 [BJK-4] | – | – | – | – | – | 16 (≈ 14.6 µM) | 16 (≈ 14.6 µM) | 16 (≈ 14.6 µM) | 16 (≈ 14.6 µM) | nearly preserved | nearly preserved | – | –
CC(=O)N[C@@H](CCCCN)C(=O)N[C@@H](Cc1c[nH]c2ccccc12)C(=O)N[C@@H](CCCCN)C(N)=O [BJK-8] (Ac-Lys-Trp-Lys-NH2) | – | – | – | – | 14.2 | 128 (≈ 255 µM) | >128 | >128 | 64 (≈ 128 µM) | – | – | – | –
CC[C@H](C)[C@H](NC(=O)CN)C(=O)NCC(=O)N[C@@H](C)C(=O)N[C@H](C(=O)N[C@@H](CC(C)C)C(=O)N[C@@H](CCCCN)C(=O)N[C@H](C(=O)N[C@@H](CC(C)C)C(=O)N[C@H](C(=O)N[C@H](C(=O)NCC(=O)N[C@@H](CC(C)C)C(=O)N1CCC[C@H]1C(=O)N[C@@H](C)C(=O)N[C@@H](CC(C)C)C(=O)N[C@H](C(=O)N[C@@H](CO)C(=O)N[C@@H](Cc1c[nH]c2ccccc12)C(=O)N[C@H](C(=O)N[C@@H](CCCCN)C(=O)N[C@@H](CCCNC(=N)N)C(=O)N[C@@H](CCCCN)C(=O)N[C@@H](CCCNC(=N)N)C(=O)N[C@@H](CCC(N)=O)C(=O)N[C@@H](CCC(N)=O)C(N)=O)[C@@H](C)CC)[C@@H](C)CC)[C@@H](C)O)[C@@H](C)O)C(C)C)C(C)C [melittin, reference compound] | – | – | – | – | – | – | – | – | – | – | – | completely abolished | completely abolished
CC(=O)N[C@@H](CCCCN)C(=O)N[C@@H](Cc1c[nH]c2ccccc12)C(=O)N[C@@H](CCCCN)C(=O)N[C@@H](Cc1c[nH]c2ccccc12)C(N)=O [BJK-10] (Ac-KWKW-NH2) | >128 | >128 | >128 | >128 | 17.9 | – | – | – | – | – | – | – | –
CC(=O)NCCNc1nc(NCC(N)=O)nc(N(CCCN)CCCN)n1 [BJK-1] | – | – | – | – | 8.8 | 128 (≈ 335 µM) | >128 | >128 | 128 (≈ 335 µM) | – | – | – | –
CC(=O)N[C@@H](Cc1c[nH]c2ccccc12)C(=O)N[C@@H](CCCCN)C(=O)N[C@@H](Cc1c[nH]c2ccccc12)C(N)=O [BJK-9] (Ac-Trp-Lys-Trp-NH2) | – | – | – | – | 19.6 | >128 | >128 | >128 | >128 | – | – | – | –
